Six compounds from the supplement of paper PMC12698765 can be followed below.

Test [1] relates to 409B2 hiPSC (iCRISPR Cas9, FRMD7 editing). As to the kind of experiment: NHEJ-attributed indel frequency relative to solvent control (fold (ratio to mock)); higher = more NHEJ outcomes. How it is done:
(§1)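 Subset screen of 55 drugs tested at 5 concentrations around the effective screening dose, in 409B2 iCRISPR Cas9 hiPSCs editing FRMD7 with a ssDNA donor. Drugs were applied for 24 h. Viability was read by resazurin and editing outcomes by amplicon sequencing (HDR, NHEJ <2 bp microhomology, MMEJ ≥2 bp microhomology). Values are relative to solvent mock controls; two biological replicates.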

Test [2] shares this test system. As to the kind of experiment: MMEJ-attributed deletion frequency relative to solvent control (fold (ratio to mock)); higher = more MMEJ outcomes. As to the method:
as §1

For test [3] the test system is unchanged. Kind of test: cell survival relative to solvent control (fold (ratio to mock)); higher = more surviving cells. As to the method: as §1
Test [4] has the same test system. As to the kind of experiment: HDR (precise edit) frequency relative to solvent control (fold (ratio to mock)); higher = more homology-directed repair outcomes. As to the method:
as §1

± gives the standard deviation of the averaged measurements.

For the compound `OC[C@H]1O[C@@H](c2ccc(F)c(Cc3cc4ccccc4s3)c2)[C@H](O)[C@@H](O)[C@@H]1O` [Ipragliflozin] (in DMSO), the NHEJ-attributed indel frequency in test [1] (20 nM) was determined as 1 ± 0.038; in test [1] (50 nM), 0.9974 ± 0.0051; in test [1] (100 nM), 1.005 ± 0.0019; in test [1] (200 nM) it was 1.01 ± 0.012; in test [1] (500 nM), 0.995 ± 0.032. Also, the MMEJ-attributed deletion frequency in test [2] (20 nM) came to 0.982 ± 0.092; in test [2] (50 nM), 0.909 ± 0.09; in test [2] (100 nM), 0.913 ± 0.041; in test [2] (200 nM) it was 0.94 ± 0.11; in test [2] (500 nM) it was 1.07 ± 0.08. Besides, the cell survival in test [3] (20 nM) was determined as 0.951; in test [3] (50 nM), 1.11; in test [3] (100 nM) it was 0.915; in test [3] (200 nM), 1.12; in test [3] (500 nM) it was 0.95. For the same compound, the HDR in test [4] (20 nM) was 1.09 ± 0.029; in test [4] (50 nM) it was 1 ± 0.037; in test [4] (100 nM), 0.984 ± 0.064; in test [4] (200 nM), 1.02 ± 0.07; in test [4] (500 nM), 1.05 ± 0.067.
In the case of `CC[C@@]1(O)C(=O)OCc2c1cc1n(c2=O)Cc2cc3c(CN(C)C)c(O)ccc3nc2-1` [Topotecan] (in DMSO), the NHEJ-attributed indel frequency was found to be 0.951 ± 0.029 in test [1] (2 nM); 0.936 ± 0.04 in test [1] (5 nM); 0.896 ± 0.032 in test [1] (10 nM); 0.68 ± 0.029 in test [1] (20 nM); 0.625 ± 0.023 in test [1] (50 nM). Moreover, the MMEJ-attributed deletion frequency in test [2] (2 nM) is 1.13 ± 0.065; in test [2] (5 nM) it was 1.04 ± 0.1; in test [2] (10 nM), 0.835 ± 0.1; in test [2] (20 nM), 0.595 ± 0.26; in test [2] (50 nM) it was 0.699 ± 0.15. Besides, the cell survival in test [3] (2 nM) came out at 0.777; in test [3] (5 nM), 0.814; in test [3] (10 nM), 0.361; in test [3] (20 nM), 0.0825; in test [3] (50 nM) it was 0.0185. Also, the HDR in test [4] (2 nM) worked out at 1.11 ± 0.042; in test [4] (5 nM), 1.07 ± 0.049; in test [4] (10 nM) it was 0.938 ± 0.035; in test [4] (20 nM), 0.975 ± 0.16; in test [4] (50 nM), 0.321 ± 0.15.
Regarding `CC[C@H](CO)Nc1nc(NCc2ccccc2)c2ncn(C(C)C)c2n1` [Roscovitine (Seliciclib,CYC202)] (in DMSO), the NHEJ-attributed indel frequency stood at 1.004 ± 0.0097 in test [1] (20 nM); 1 ± 0.011 in test [1] (50 nM); 0.992 ± 0.013 in test [1] (100 nM); 0.995 ± 0.037 in test [1] (200 nM); 1 ± 0.021 in test [1] (500 nM). In addition, the MMEJ-attributed deletion frequency in test [2] (20 nM) turned out to be 0.952 ± 0.12; in test [2] (50 nM) it was 0.912 ± 0.082; in test [2] (100 nM), 0.943 ± 0.021; in test [2] (200 nM) it was 0.943 ± 0.18; in test [2] (500 nM) it was 1 ± 0.058. Also, the cell survival in test [3] (20 nM) amounted to 1.04; in test [3] (50 nM) it was 1.14; in test [3] (100 nM), 0.963; in test [3] (200 nM), 0.955; in test [3] (500 nM), 1.17. For the same compound, the HDR in test [4] (20 nM) came to 1.06 ± 0.024; in test [4] (50 nM), 0.983 ± 0.017; in test [4] (100 nM), 1.08 ± 0.043; in test [4] (200 nM), 1.02 ± 0.043; in test [4] (500 nM) it was 1.11 ± 0.049.
With `Oc1cccc(O)c1` [Resorcinol] (in DMSO), the NHEJ-attributed indel frequency in test [1] (200 nM) was found to be 0.988 ± 0.024; in test [1] (500 nM), 0.995 ± 0.0014; in test [1] (1000 nM) it was 1 ± 0.043; in test [1] (2000 nM), 0.999 ± 0.033; in test [1] (5000 nM) it was 0.99 ± 0.043. Further, the MMEJ-attributed deletion frequency in test [2] (200 nM) was 0.916 ± 0.095; in test [2] (500 nM) it was 0.884 ± 0.054; in test [2] (1000 nM), 0.824 ± 0.045; in test [2] (2000 nM), 0.934 ± 0.13; in test [2] (5000 nM) it was 0.922 ± 0.16. Also, the cell survival was determined as 1.15 in test [3] (200 nM); 1.17 in test [3] (500 nM); 0.955 in test [3] (1000 nM); 1.03 in test [3] (2000 nM); 1.12 in test [3] (5000 nM). Also, the HDR in test [4] (200 nM) stood at 1.07 ± 0.072; in test [4] (500 nM), 1.08 ± 0.038; in test [4] (1000 nM), 1.11 ± 0.026; in test [4] (2000 nM), 1.07 ± 0.021; in test [4] (5000 nM), 1.06 ± 0.073.
Take `NC(=O)CC[C@@H](N)C(=O)O` [D-Glutamine] (in H2O): the NHEJ-attributed indel frequency in test [1] (20 nM) was found to be 1.02 ± 0.029; in test [1] (50 nM) it was 1.03 ± 0.016; in test [1] (100 nM) it was 1.02 ± 0.028; in test [1] (200 nM), 1.03 ± 0.025; in test [1] (500 nM), 1.01 ± 0.024. Further, the MMEJ-attributed deletion frequency in test [2] (20 nM) stood at 0.971 ± 0.055; in test [2] (50 nM) it was 0.874 ± 0.034; in test [2] (100 nM) it was 0.887 ± 0.17; in test [2] (200 nM), 0.933 ± 0.064; in test [2] (500 nM) it was 0.918 ± 0.092. The cell survival in test [3] (20 nM) is 0.958; in test [3] (50 nM), 1.03; in test [3] (100 nM) it was 0.932; in test [3] (200 nM) it was 1.16; in test [3] (500 nM), 0.888. For the same compound, the HDR in test [4] (20 nM) turned out to be 0.953 ± 0.047; in test [4] (50 nM) it was 0.985 ± 0.033; in test [4] (100 nM) it was 0.9265 ± 0.0046; in test [4] (200 nM) it was 0.985 ± 0.031; in test [4] (500 nM), 0.965 ± 0.055.
`C=CC[C@]1(O)CC[C@H]2[C@@H]3CCC4=CC(=O)CCC4=C3C=C[C@@]21C` [Altrenogest] (in DMSO): the NHEJ-attributed indel frequency in test [1] (20 nM) amounted to 0.9775 ± 0.0069; in test [1] (50 nM) it was 1.007 ± 0.0051; in test [1] (100 nM) it was 1.007 ± 0.0033; in test [1] (200 nM) it was 1 ± 0.038; in test [1] (500 nM), 1.02 ± 0.036. The MMEJ-attributed deletion frequency was determined as 1 ± 0.085 in test [2] (20 nM); 0.963 ± 0.12 in test [2] (50 nM); 1.02 ± 0.12 in test [2] (100 nM); 0.888 ± 0.14 in test [2] (200 nM); 0.98 ± 0.18 in test [2] (500 nM). The cell survival in test [3] (20 nM) was found to be 1.01; in test [3] (50 nM), 1.11; in test [3] (100 nM), 0.87; in test [3] (200 nM) it was 1.05; in test [3] (500 nM) it was 1.06. In addition, the HDR in test [4] (20 nM) came to 1.08 ± 0.065; in test [4] (50 nM), 1.08 ± 0.06; in test [4] (100 nM), 1.024 ± 0.0079; in test [4] (200 nM), 1.048 ± 0.0023; in test [4] (500 nM), 1.01 ± 0.088.
